Where “and” joins values, the source holds several entries; their conditions need not be identical. Equal values may be shown once. Entries after “also recorded” stand apart in the source; their conditions may differ. Read-outs that look alike come from different tables or passages of the source.
Key:
serum phosphate levels = experiment: Pharmacodynamics: serum phosphate levels; assay type: in vivo, human; conditions: BGJ398 treatment; consistently at doses ≥ 100 mg
[1] = on the basis of preclinical data ref 20; cited from earlier work
[2] = test system: RT112 human tumor-derived FGFR gene fusion bladder cancer cell line; conditions: read-out: Half maximal inhibitory concentration; cited from earlier work
[3] = Pharmacokinetics: BGJ398 plasma concentrations; assay type: in vivo, human
[4] = test system: solid tumors harboring FGFR alterations; experiment: Antitumor activity, RECIST v1.0 tumor evaluations; assay type: in vivo, human
FGFR4 = conditions: read-out: Half maximal inhibitory concentration; cited from earlier work
[5] = test system: patients with advanced solid tumors harboring FGFR genetic alterations; experiment: Patient disposition and treatment exposure; assay type: in vivo
[6] = test system: patients with advanced solid tumors harboring FGFR genetic alterations
[7] = 36 patients with FGFR1-amplified sqNSCLC, ≥ 100 mg continuously
[8] = eight patients with FGFR3-mutated bladder/urothelial cancer, ≥ 100 mg

CCN1CCN(c2ccc(Nc3cc(N(C)C(=O)Nc4c(Cl)c(OC)cc(OC)c4Cl)ncn3)cc2)CC1 [BGJ398, 3-(2,6-dichloro-3,5-dimethoxy-phenyl)-1-{6-[4-(4-ethyl-piperazin-1-yl)-phenylamino]-pyrimidin-4-yl}−1-methyl-urea]
Serum phosphate levels (serum phosphate levels): increased serum phosphate levels; also recorded: Elevated serum phosphate levels | Predicted efficacious level (unbound BGJ398 concentration) [1]: […] | IC50 [2]: 4 nM | Increase of mean AUC from 0 to 24 hours on day 1 ([3]; from 20 to 150 mg once daily): approximately nine | Tmax ([3]; human, plasma, oral, Median time to reach maximum plasma concentration, after a single dose): 2 to 3 h | Patients continuing to receive treatment for > 8 weeks ([4]; 31 sqNSCLC patients treated at 125 mg continuously): 12 | Disease control rate (DCR: PR + SD) [4, 7]: 50% | Patients achieving PRs (overall response rate) [4, 7]: 11.1% and 11% | Patients with SD [4, 7]: 14 patients | Patients with reduced tumor burden ([4]; 85 patients treated at ≥ 100 mg with evaluable data (28 patients)): 32.9% | Time responder remained on study ([4]; FGFR1-amplified sqNSCLC, unconfirmed PR): 26.3 weeks | Patients with best overall response of SD ([4]; all patients, N = 132): 42 | Tumor burden change ([4]; all three patients with FGFR2-altered cholangiocarcinoma with pre- and post-treatment assessments): reduced tumor burden | Patients with best response of SD ([4]; breast cancer, ≥ 100 mg, 10 of 32 patients): 31% | Partial responses ([4]; doses ≥ 100 mg, FGFR1-amplified sqNSCLC and FGFR3-mutant bladder/urothelial cancer, six confirmed): seven | Disease control rate (DCR) [4, 8]: 75% | Patients achieving PRs (overall response rate) [4, 8]: 37.5% and 38% | Patients with reduced tumor burden [4, 8]: 62.5% | Patients with disease control ([4]; of 132 patients across all doses): 49 | IC50 (FGFR4): […] | Discontinuation because of death ([5]; N = 132): 3.8% | Discontinuation because of disease progression ([5]; N = 132): 67.4% | Discontinuation because of AEs ([5]; human, in vivo): 12.9% | Dose-limiting toxicity observed ([6]; 100 mg, n = 1): grade 3 aminotransferase elevations; also recorded: grade 3 increases in ALT/AST | Dose-limiting toxicity observed ([6]; 150 mg, n = 1 each): grade 1 corneal toxicity; also recorded: grade 3 aminotransferase elevations; also recorded: grade 3 increases in ALT/AST | Reversibility of DLTs ([6]; after BGJ398 interruption and/or concomitant medication): reversible | Patients who died while receiving treatment or within 28 days of the last dose ([6]; all doses, N = 132): Fifteen | Patients experiencing DLTs ([6]; dose-determining set, four of 34 patients, cycle 1): 11.8% | AE leading to discontinuation, patients ([6]; human, in vivo): 13.6% | AE requiring dose adjustment or interruption, patients ([6]; human, in vivo): 59.1% | Asymptomatic hyperphosphatemia suspected to be treatment related, patients ([6]; human, in vivo): 72.7% | At least one AE suspected to be treatment related, patients ([6]; human, in vivo): 95.5% | Eye-related AE leading to discontinuation, patients ([6]; human, in vivo): 4.5% | Grade 3/4 AE suspected to be treatment related, patients ([6]; human, in vivo): 31.1% | Grade 3/4 TEAEs, patients ([6]; human, in vivo): 52.3% | Median duration of dose interruption ([6]; human, in vivo): […] | Median time to first dose interruption ([6]; human, in vivo): 22 days | Treatment-emergent AEs (TEAEs), patients ([6]; human, in vivo): 99.2% | Treatment-related alopecia, patients ([6]; human, in vivo): 23.5% | Treatment-related decreased appetite, patients ([6]; human, in vivo): 28.8% | Treatment-related diarrhea, patients ([6]; human, in vivo): 27.3% | Treatment-related fatigue, patients ([6]; human, in vivo): 25.0% | Treatment-related nausea, patients ([6]; human, in vivo): 22.0% | Treatment-related stomatitis, patients ([6]; human, in vivo): 36.4% | Dose-limiting toxicity observed ([6]; in vivo): hyperphosphatemia | Deaths attributed to PD or to related AEs ([6]; of fifteen deaths): 11 | Deaths suspected to be BGJ398 related ([6]; of fifteen deaths): One | Maximum tolerated dose (MTD) ([6]; oral, once daily): 125 mg | Recommended phase II dose (RP2D) ([6]; oral, once daily, 3-weeks-on/1-week-off schedule): 125 mg

— paper PMC6865065 (Journal of clinical oncology : official journal of the …, 2016)
